Results published in US6489341B1 (Sepracor Inc., priority 1999, dated 2002).
Where two headings read alike, the source gives them in different places.

Legend:
[1] = molecular target: non-selective α1 receptor from rat cerebral cortex; assay: Binding affinity at non-selective α1 receptor; conditions: for Ki: calculated inhibition constant, in parentheses; for IC50: concentration required to inhibit 50% specific binding
[2] = molecular target: T1, human recombinant dopamine D4 receptor (Homo sapiens, UniProt P21917); assay: Binding affinity at dopamine D4 receptor; conditions: for Ki: calculated inhibition constant, in parentheses; for IC50: concentration required to inhibit 50% specific binding
T1 construct: expressed in transfected cells
T1 sequence (P21917 1-419): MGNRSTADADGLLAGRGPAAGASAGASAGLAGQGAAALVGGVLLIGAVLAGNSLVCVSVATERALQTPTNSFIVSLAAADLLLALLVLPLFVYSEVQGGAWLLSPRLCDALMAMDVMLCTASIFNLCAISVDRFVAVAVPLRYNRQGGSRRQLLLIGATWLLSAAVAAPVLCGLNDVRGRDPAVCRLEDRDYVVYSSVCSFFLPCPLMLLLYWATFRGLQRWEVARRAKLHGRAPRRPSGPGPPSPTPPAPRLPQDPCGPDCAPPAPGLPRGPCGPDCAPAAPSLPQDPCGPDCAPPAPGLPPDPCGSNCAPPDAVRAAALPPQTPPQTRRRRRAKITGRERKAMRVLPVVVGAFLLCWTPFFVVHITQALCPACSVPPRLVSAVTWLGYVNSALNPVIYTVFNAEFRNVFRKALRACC

[3] = molecular target: T2, human recombinant serotonin 5-HT2A receptor (Homo sapiens, UniProt P28223); assay: Binding affinity at serotonin 5-HT2A receptor; conditions: for selectivity for 5-HT2A receptors versus D2 receptors (in words): conclusion from Table 1; for 5-HT2A Selectivity (D2/5-HT2A): ratio of D2 to 5-HT2A IC50
T2 construct: expressed in transfected cells
T2 sequence (P28223 whole entry): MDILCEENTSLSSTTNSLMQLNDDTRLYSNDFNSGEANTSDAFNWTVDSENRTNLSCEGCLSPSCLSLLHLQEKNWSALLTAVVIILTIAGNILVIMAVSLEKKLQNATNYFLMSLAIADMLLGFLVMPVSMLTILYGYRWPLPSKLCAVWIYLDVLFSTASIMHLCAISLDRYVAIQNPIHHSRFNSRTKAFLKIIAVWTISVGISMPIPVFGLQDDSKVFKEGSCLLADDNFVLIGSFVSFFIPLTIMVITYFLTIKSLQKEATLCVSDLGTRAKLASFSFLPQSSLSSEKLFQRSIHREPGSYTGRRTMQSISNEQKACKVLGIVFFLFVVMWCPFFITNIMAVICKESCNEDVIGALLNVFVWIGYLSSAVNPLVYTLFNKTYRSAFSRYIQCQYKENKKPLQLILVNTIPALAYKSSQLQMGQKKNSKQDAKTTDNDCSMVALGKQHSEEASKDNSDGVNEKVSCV

[4] = molecular target: T3, human recombinant dopamine D2 receptor (Homo sapiens, UniProt P14416); assay: Binding affinity at dopamine D2 receptor; conditions: for Ki: calculated inhibition constant, in parentheses; for IC50: concentration required to inhibit 50% specific binding
T3 construct: expressed in transfected cells
T3 sequence (P14416 whole entry): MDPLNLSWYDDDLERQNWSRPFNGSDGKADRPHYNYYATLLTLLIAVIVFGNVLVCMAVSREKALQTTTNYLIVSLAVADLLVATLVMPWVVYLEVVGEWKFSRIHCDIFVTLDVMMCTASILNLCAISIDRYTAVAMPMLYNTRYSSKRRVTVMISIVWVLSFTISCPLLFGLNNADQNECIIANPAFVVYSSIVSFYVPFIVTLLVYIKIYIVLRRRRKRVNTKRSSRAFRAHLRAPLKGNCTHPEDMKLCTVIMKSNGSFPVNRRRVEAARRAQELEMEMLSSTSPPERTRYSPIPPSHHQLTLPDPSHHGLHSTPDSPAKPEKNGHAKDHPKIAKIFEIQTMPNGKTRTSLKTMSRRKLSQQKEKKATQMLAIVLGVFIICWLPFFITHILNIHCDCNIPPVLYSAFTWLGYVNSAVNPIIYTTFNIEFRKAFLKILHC

[5] = calculated inhibition constant, in parentheses, human recombinant, read-out: Ki by Receptor 5-HT2A
[6] = concentration required to inhibit 50% specific binding, human recombinant, read-out: IC50 by Receptor 5-HT2A

SMILES: O=C1CNC(=O)N1CCN1CCC(c2cn(-c3ccc(F)cc3)c3ccc(Cl)cc23)CC1 [5-Oxo, 1-[2-[4-[5-chloro-1-(4-fluorophenyl)-1H-indol-3-yl]piperidin-1-yl]ethyl]midazolidin-2,5-dione]
- Ki [1]: 3.3 nM
- IC50 [1]: 12 nM
- Ki [2]: 96 nM
- IC50 [2]: 315 nM
- Ki [3, 5]: 11 nM
- IC50 [3, 6]: 18 nM
- selectivity for 5-HT2A receptors versus D2 receptors (in words) [3]: greater selectivity for 5-HT2A receptors than for D2 receptors
- 5-HT2A Selectivity (D2/5-HT2A) [3]: 2.4
- Ki [4]: 11 nM
- IC50 [4]: 44 nM

SMILES: COc1cc2nc(N3CCN(C(=O)c4ccco4)CC3)nc(N)c2cc1OC [Prazosin, reference compound]
- Ki [1]: 0.087 nM
- IC50 [1]: 0.32 nM

SMILES: O=C1NCCN1CCN1CCC(c2cn(-c3ccc(F)cc3)c3ccc(Cl)cc23)CC1 [Sertindole, 1-[2-[4-[5-chloro-1-(4-fluorophenyl)-1H-indol-3-yl]-1-piperidinyl]ethyl]-2-imidazolidinone, reference compound]
- Ki [1]: 1.7 nM
- IC50 [1]: 6.2 nM

SMILES: Fc1ccc(-n2cc(C3=CCNCC3)c3cc(Cl)ccc32)cc1 [Dehydro-Nor]
- Ki [1]: 28 nM
- IC50 [1]: 102 nM
- Ki [2]: 116 nM
- IC50 [2]: 379 nM
- IC50 [3]: 25 nM
- Ki [3]: 16 nM
- 5-HT2A Selectivity (D2/5-HT2A) [3]: 1.4
- Ki [4]: 8.8 nM
- IC50 [4]: 34 nM

SMILES: Fc1ccc(-n2cc(C3=CCNCC3)c3cc(Cl)ccc32)cc1 [Nor, 5-chloro-1-(4-fluorophenyl)-3-(1,2,3 6-tetrahydropvridin-4-yl)indole]
- Ki [1]: 13 nM
- IC50 [1]: 49 nM
- Ki [2]: 333 nM
- IC50 [2]: 1090 nM
- Ki [3, 5]: 11 nM
- IC50 [3, 6]: 17 nM
- selectivity for 5-HT2A receptors versus D2 receptors (in words) [3]: greater selectivity for 5-HT2A receptors than for D2 receptors
- 5-HT2A Selectivity (D2/5-HT2A) [3]: 4.6
- Ki [4]: 20 nM
- IC50 [4]: 78 nM
